Experimental data: patent US7989466B2, “Methods to inhibit or augment an inflammatory response” (Cambridge Enterprise Limited, priority 1999, dated 2011)
Positions of bridges follow the written chain, without caps; N, C: chain ends. Non-standard residues stand in square brackets, D forms with d. Residues, ends and D or L forms follow the SMILES beside them.

Legend:
[1] = tested on: antigen specific antibody recall response; assay: Cynomolgus monkeys immunized with scFv antigen; assay type: in vivo; conditions: single dose 50 mg/kg i.v.
Experimental: Cynomolgus monkeys were immunized with antigen that is a single chain Fv (scFv) protein. Each animal previously received 3 i.v. injections of the antigen and all developed high serum titers. Five animals were randomly divided into 2 groups. Two animals served as PBS treated controls and 3 were treated i.v. with 50 mg/kg CRD-Leu4Ile11Cys13 peptide 3(3-12)[MCP-1]. Thirty minutes following CRD-Leu4Ile11Cys13 peptide 3(3-12)[MCP-1] treatment all animals were challenged i.v. with 3.5 mg/kg antigen. In addition, animals were challenged intradermal with each of the following in a volume of 50 μl:PBS; 50 μg antigen; 5 μg antigen; 0.5 μg antigen; 500 ng MCP-1; or 50 ng LPS. Serum was collected at 10 minutes, 30 minutes, 60 minutes, 4 hours, and 24 hours. Animals were sacrificed 24 hours after CRD-Leu4Ile11Cys13 peptide 3(3-12)[MCP-1] injection and complete necropsy performed and tissues fixed for histopathology. Fixed and frozen skin samples were harvested for histopathology and immunohistochemistry. […] Blood was also analyzed pre- and post-CRD-Leu4Ile11Cys13 peptide 3(3-12)[MCP-1] injection for hematology parameters and serum chemistry. Serum levels were evaluated by an LC-MS method (limit of quantitation=1 μg/ml) pre-treatment and then at 10 minutes, 30 minutes, 60 minutes, 4 hours and 20-24 hours after injection. […]

[2] = tested on: CD4 T cells; conditions: 5 ng
[3] = tested on: RANTES induced THP-1 migration; assay: THP-1 trans-well migration assay, RANTES as chemoattractant; assay type: cell-based, human; conditions: Homo sapiens, THP-1; read-out: ED50, RANTES chemotaxis assay
Experimental: To determine whether an agent inhibits a chemokine-induced activity, such as macrophage recruitment, varying amounts of the agent are mixed with cells in the presence of a known chemoattractant. For example, a range of known concentrations of an agent, e.g., a chemokine peptide, is incubated with a defined number (e.g., 10^4-10^6) of human THP-1 monocyte cells in individual wells of the top compartment of a trans-well plate. Chemokine (such as MCP-1, MIP1α, IL8 or SDF-1α), at a concentration known to cause significant migration of THP-1 cells in the trans-well migration assay, is placed in the lower compartment (FIG. 1). […] A standard curve consisting of a two-fold dilution series of THP-1 cells (in 29 μl) is prepared to accurately quantify the number of cells that have migrated. […] Absorbance of converted dye is measured at a wavelength of 595 nm using an ELISA plate reader. The number of migrated cells in each well is then determined by interpolation of the standard curve (see also Imai et al., J. Biol. Chem., 272, 15036 (1997)). […]
After incubation, the cells were gently removed from the top of the filter with a pipette, 20 μl of 20 mM EDTA in PBS was added into each top well, and the mixture was incubated for 20 minutes at 4° C. […] A standard curve was prepared to accurately quantify the number of THP-1 cells that had migrated. […]

Compound | antigen specific antibody response in splenocyte, lymph node and PBL recall responses [1] | reduction of ConA proliferation of CD4 T cells [2] [%] | EC50 [3] [pM]
CC[C@@H](C)[C@H]1NC(=O)[C@@H](CCC(N)=O)NC(=O)[C@H](N)CSSC[C@H](C(N)=O)NC(=O)[C@@H](CC(C)C)NC(=O)[C@@H](CC(=O)O)NC(=O)[C@H]2CCCN2C(=O)[C@@H](CCCCN)NC(=O)[C@@H](CCC(N)=O)NC(=O)[C@@H](CCCCN)NC(=O)[C@@H](Cc2c[nH]c3ccccc23)NC1=O (H-[dC][dQ][dI][dW][dK][dQ][dK][dP][dD][dL][dC]-NH2; disulfide 1-11; N-terminus assumed) | reduced antigen specific antibody response | < 3 | –
C=CCCCCCCCCC(=O)N[C@H]1CCC(=O)NC1=O [A-I (NR58.4), [3S]-3-(undec-10-enoylamino)piperidine-2,6-dione] | – | – | 300
